# Test results as given in patent US11130960B2, “Methods for conferring or enhancing herbicide resistance on plants and/or alga with protoporphyrinogen oxidase variants” (FARM HANNONG CO., LTD., priority 2014, dated 2021).
# Columns and labels:
# [1] = tested on: mutant AtPPO1 transformant; experiment: Seed germination on ½ MS medium containing herbicide; format: in vivo, Arabidopsis thaliana; settings: ½ MS medium containing 70 nM tiafenacil
# [2] = tested on: Halothece sp. PCC 7418 strain; experiment: Herbicide resistance test of Halothece sp. PCC 7418 strain in CRBIP medium; format: cell-based; settings: 8 days after treatment, CRBIP Medium 1538
# Description: Halothece sp. PCC 7418 strain was cultured in CRBIP Medium 1538 (Institut Pasteur, France). CRBIP Medium 1538 is a mixed medium of ASNIII and Turks Island Salts 4× at a ratio of 1:1(v/v), and ASNIII medium was composed of 25.0 g of NaCl, 3.5 g of MgSO4.7H2O, 2.0 g of MgCl2.6H2O, 0.5 g of KCl, 0.5 g of CaCl2.2H2O, 0.75 g of NaNO3, 0.02 g of K2HPO4.3H2O, 0.04 g of NaCO3, 2.5 ml of ammonium iron(III) citrate/citric acid monohydrate solution [a mixture of 300 mg of ammonium iron(III) citrate, 300 mg of citric acid monohydrate, and 250 ml of distilled water], 2.5 ml of magnesium titriplex dihydrate solution [a mixture of 0.1 g of Mg EDTA and 500 ml of distilled water], 1 ml of trace metal A5+Co [a mixture of 2.86 g of H3BO3, 1.81 g of MnCl2.4H2O, 0.222 g of ZnSO4.7H2O, 0.39 g of NaMoO4.2H2O, 0.079 g of CuSO4.5H2O, 0.049 g of Co(NO3)2.6H2O and 1000 ml of distilled water], and 1000 ml of distilled water. Turks Island Salts 4× was composed of 112 g of NaCl, 2.68 g of KCl, 22 g of MgCl2.6 H2O, 27.7 g of MgSO4.7 H2O, 5.8 g of CaCl2.2 H2O, and 1000 ml of distilled water. ASNIII medium and Tursk Island Salts 4× were autoclaved at 120° C. for 20 minutes, respectively and then mixed at a ratio of 1:1(v/v).
# 5 ml of the above culture medium was added to a test tube, and 2 or 10 μM of Tiafenacil was added thereto or not. The seed-cultured Halothece sp. […]
structure (smiles),measurement,setting,value
COC(=O)CCNC(=O)C(C)Sc1cc(-n2c(=O)cc(C(F)(F)F)n(C)c2=O)c(F)cc1Cl (centres unmarked) [Tiafenacil],seed germination,[1],showed germination
same,concentration at which growth of the strain was maintained,[2],10 µM
